Experimental data: the supplement of paper PMC7796163
± gives the uncertainty stated by the source.

Columns and labels:
Assay in all cases: CYP enzyme activity (probe substrate metabolite formation) fold change vs solvent control; higher = stronger induction of CYP activity
Settings in all cases: HepaRG
[1] = biological target: CYP2D6 (UniProt P10635)
Description: (§1)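 Differentiated HepaRG cells were treated with 1, 5 or 10 µM of each PAH (0.5% DMSO) for 12, 24 or 48 h, then incubated for 3 h at 37 °C with a cocktail of isoform-specific CYP substrates (phenacetin for CYP1A2, bupropion for CYP2B6, amodiaquine for CYP2C8, tolbutamide for CYP2C9, mephenytoin for CYP2C19, propafenone for CYP2D6, atorvastatin for CYP3A4). Metabolite formation was quantified by LC-MS as a measure of CYP activity and reported as fold change over solvent control (mean ± SD, n=3). Values below the LLOQ were set to half the LLOQ.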

[2] = biological target: CYP3A4 (UniProt P08684)
Description: as §1

[3] = biological target: T1, CYP1A2 (UniProt P05177)
T1 sequence (whole entry): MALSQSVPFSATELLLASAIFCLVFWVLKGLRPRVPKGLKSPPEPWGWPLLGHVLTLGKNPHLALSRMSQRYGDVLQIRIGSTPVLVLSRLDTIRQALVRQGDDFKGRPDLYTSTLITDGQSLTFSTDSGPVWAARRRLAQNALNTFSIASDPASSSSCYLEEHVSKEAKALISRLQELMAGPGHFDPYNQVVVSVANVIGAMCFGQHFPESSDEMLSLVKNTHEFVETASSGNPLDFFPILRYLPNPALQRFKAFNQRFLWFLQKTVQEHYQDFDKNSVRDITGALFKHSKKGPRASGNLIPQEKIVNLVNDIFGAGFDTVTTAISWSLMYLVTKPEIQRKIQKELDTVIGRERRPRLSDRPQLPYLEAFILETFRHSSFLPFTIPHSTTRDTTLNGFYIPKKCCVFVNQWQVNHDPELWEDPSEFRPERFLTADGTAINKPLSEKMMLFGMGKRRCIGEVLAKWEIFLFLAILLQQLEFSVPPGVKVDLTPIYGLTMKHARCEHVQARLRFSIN
Description: as §1

[4] = biological target: CYP2C19 (UniProt P33261)
Description: as §1

[5] = biological target: T2, CYP2C8 (UniProt P10632)
T2 sequence (whole entry): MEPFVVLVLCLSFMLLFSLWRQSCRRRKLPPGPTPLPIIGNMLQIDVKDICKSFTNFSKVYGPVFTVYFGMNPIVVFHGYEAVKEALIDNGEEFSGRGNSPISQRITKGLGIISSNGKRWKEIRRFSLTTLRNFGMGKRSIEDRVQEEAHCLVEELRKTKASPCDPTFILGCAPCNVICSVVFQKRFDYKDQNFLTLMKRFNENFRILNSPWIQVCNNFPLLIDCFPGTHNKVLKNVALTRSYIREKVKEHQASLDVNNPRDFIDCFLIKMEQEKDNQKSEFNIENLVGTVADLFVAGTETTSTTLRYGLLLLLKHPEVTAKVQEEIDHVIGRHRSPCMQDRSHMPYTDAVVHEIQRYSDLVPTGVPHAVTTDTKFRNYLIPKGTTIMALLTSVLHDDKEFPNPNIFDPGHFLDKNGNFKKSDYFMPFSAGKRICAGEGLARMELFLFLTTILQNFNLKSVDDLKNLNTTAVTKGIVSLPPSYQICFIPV
Description: as §1

[6] = biological target: T3, CYP2B6 (UniProt P20813)
T3 sequence (whole entry): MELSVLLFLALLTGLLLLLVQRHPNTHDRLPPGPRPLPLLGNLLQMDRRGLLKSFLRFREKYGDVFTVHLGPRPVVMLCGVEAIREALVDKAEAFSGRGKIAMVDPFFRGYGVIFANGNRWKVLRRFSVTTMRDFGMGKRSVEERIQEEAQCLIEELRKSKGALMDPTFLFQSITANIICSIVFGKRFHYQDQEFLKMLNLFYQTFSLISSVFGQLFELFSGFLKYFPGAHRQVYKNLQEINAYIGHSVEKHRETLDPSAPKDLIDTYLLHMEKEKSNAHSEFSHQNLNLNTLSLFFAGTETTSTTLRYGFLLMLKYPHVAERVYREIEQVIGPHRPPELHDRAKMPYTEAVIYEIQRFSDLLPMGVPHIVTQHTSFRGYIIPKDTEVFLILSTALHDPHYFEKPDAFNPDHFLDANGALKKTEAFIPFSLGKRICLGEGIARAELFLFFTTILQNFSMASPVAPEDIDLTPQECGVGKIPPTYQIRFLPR
Description: as §1

[7] = biological target: CYP2C9 (UniProt P11712)
Description: as §1

Sequence of CYP2C19 (P33261 whole entry): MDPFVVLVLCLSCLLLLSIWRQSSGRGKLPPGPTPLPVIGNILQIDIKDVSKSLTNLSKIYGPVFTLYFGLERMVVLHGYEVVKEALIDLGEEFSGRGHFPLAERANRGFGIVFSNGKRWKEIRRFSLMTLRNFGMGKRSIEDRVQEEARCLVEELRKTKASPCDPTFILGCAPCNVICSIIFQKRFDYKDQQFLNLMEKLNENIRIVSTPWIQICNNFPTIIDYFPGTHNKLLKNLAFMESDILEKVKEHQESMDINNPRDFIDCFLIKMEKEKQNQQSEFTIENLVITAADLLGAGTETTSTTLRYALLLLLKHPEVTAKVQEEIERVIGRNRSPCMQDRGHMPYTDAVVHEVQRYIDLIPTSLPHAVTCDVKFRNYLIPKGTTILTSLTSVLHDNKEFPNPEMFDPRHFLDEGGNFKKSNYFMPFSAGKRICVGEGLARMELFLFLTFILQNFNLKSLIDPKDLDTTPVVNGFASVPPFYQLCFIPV
Sequence of CYP3A4 (P08684 whole entry): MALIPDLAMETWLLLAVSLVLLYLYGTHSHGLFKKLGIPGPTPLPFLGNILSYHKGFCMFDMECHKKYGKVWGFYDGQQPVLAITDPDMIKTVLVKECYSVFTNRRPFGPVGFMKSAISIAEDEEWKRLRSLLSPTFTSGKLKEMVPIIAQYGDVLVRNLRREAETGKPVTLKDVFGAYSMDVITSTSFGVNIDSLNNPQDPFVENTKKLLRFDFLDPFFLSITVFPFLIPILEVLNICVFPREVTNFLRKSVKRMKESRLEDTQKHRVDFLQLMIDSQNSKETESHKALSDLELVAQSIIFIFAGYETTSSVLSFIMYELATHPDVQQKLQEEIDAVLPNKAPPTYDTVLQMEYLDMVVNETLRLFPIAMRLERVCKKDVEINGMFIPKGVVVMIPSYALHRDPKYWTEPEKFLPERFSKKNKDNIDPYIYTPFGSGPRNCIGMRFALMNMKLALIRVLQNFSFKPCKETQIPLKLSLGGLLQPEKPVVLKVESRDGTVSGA
Sequence of CYP2D6 (P10635 whole entry, canonical isoform): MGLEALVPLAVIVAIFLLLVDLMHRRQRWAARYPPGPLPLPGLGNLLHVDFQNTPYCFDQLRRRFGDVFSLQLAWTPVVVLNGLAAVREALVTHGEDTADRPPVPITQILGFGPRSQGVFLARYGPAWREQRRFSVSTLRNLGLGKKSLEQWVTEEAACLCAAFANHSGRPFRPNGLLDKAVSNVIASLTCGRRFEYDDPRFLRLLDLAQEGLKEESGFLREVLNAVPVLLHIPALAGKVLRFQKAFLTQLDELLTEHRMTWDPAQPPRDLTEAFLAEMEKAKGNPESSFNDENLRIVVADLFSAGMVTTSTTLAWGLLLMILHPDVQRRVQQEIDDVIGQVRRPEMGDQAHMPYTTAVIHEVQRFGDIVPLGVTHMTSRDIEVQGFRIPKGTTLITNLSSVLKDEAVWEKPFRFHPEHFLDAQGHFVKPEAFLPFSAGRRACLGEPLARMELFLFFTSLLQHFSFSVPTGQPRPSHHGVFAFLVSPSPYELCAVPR
Sequence of CYP2C9 (P11712 whole entry): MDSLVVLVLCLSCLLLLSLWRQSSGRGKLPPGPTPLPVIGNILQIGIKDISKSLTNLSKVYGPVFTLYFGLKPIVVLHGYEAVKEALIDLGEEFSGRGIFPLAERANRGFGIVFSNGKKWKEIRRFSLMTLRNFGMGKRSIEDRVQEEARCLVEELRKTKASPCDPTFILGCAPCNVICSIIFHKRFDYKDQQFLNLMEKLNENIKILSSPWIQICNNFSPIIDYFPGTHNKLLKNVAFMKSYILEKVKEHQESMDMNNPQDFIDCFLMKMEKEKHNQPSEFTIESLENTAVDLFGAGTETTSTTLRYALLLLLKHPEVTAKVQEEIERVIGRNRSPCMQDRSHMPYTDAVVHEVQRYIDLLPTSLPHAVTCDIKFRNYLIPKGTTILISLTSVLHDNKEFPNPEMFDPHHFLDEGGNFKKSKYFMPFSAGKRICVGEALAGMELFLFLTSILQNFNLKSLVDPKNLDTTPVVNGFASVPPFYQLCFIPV

c1ccc2c(c1)cc1ccc3cccc4c5ccccc5c2c1c34 [dibenzo[a,l]pyrene]
CYP enzyme activity
Settings | [1] | [2] | [3] | [4] | [5] | [6] | [7]
1 µM, treatment time 12 h | 1.11 | 0.927 | 2.04 | 0.768 | 1 | 0.84 | 0.921
1 µM, treatment time 24 h | 0.798 | 0.778 | 1.35 | 0.823 | 0.987 | 0.906 | 0.918
1 µM, treatment time 48 h | 0.552 | 0.619 | 0.763 | 0.763 | 0.78 | 0.735 | 0.804
5 µM, treatment time 12 h | 1.28 | 0.768 | 1.61 | 0.741 | 0.644 | 0.611 | 0.753
5 µM, treatment time 24 h | 0.791 | 0.672 | 2.27 | 0.781 | 0.714 | 1.19 | 0.89
5 µM, treatment time 48 h | 0.288 | 0.385 | 0.603 | 0.53 | 0.326 | 0.584 | 0.472
10 µM, treatment time 12 h | 1.19 | 0.543 | 0.515 | 0.469 | 0.627 | 0.313 | 0.395
10 µM, treatment time 24 h | 0.789 | 0.471 | 1.39 | 0.689 | 0.639 | 1.22 | 0.732
10 µM, treatment time 48 h | 0.212 | 0.118 | 0.286 | 0.257 | 0.166 | 0.354 | 0.233

c1ccc2c(c1)-c1cccc3cccc-2c13 [fluoranthene]
CYP enzyme activity
Settings | [1] | [2] | [3] | [4] | [5] | [6] | [7]
1 µM, treatment time 12 h | 0.989 | 0.901 | 1.01 | 0.972 | 1.01 | 1.2 | 1.02
1 µM, treatment time 24 h | 0.981 | 0.98 | 0.943 | 0.974 | 1.06 | 1.58 | 1.09
1 µM, treatment time 48 h | 0.91 | 1.03 | 1.07 | 1.1 | 1.14 | 2.05 | 1.18
5 µM, treatment time 12 h | 1.16 | 1.01 | 1.33 | 1.09 | 0.987 | 1.35 | 1.17
5 µM, treatment time 24 h | 1.11 | 1.16 | 1.09 | 1.16 | 1.07 | 2.28 | 1.3
5 µM, treatment time 48 h | 1.06 | 1.28 | 1.27 | 1.26 | 1.14 | 3.59 | 1.34
10 µM, treatment time 12 h | 1.18 | 1 | 1.41 | 0.999 | 0.988 | 1.25 | 1.15
10 µM, treatment time 24 h | 1.08 | 1.03 | 1.07 | 0.995 | 1.04 | 2.01 | 1.11
10 µM, treatment time 48 h | 1.06 | 1.35 | 1.312 | 1.22 | 1.2 | 3.74 | 1.39

c1ccc2c(c1)ccc1ccccc12 [phenanthrene]
CYP enzyme activity
Settings | [1] | [2] | [3] | [4] | [5] | [6] | [7]
1 µM, treatment time 12 h | 0.961 | 0.891 | 0.969 | 0.946 | 0.995 | 1.02 | 1.02
1 µM, treatment time 24 h | 0.97 | 0.828 | 0.862 | 0.961 | 1.01 | 1.18 | 1.05
1 µM, treatment time 48 h | 0.879 | 0.844 | 0.839 | 0.981 | 1.01 | 1.15 | 1.06
5 µM, treatment time 12 h | 1.08 | 0.961 | 1.04 | 1.06 | 0.991 | 1.25 | 1.08
5 µM, treatment time 24 h | 1.19 | 1.1 | 1.18 | 1.15 | 1.05 | 1.98 | 1.27
5 µM, treatment time 48 h | 1.05 | 1.1 | 1.09 | 1.16 | 1.08 | 2.15 | 1.23
10 µM, treatment time 12 h | 1.03 | 0.928 | 1.1 | 0.985 | 0.995 | 1.12 | 1.03
10 µM, treatment time 24 h | 0.986 | 0.994 | 1.06 | 1.11 | 1.04 | 1.75 | 1.17
10 µM, treatment time 48 h | 1.03 | 1.11 | 1.11 | 1.17 | 1.08 | 2.29 | 1.34

c1cc2ccc3cccc4ccc(c1)c2c34 [pyrene]
CYP enzyme activity
Settings | [1] | [2] | [3] | [4] | [5] | [6] | [7]
1 µM, treatment time 12 h | 0.973 | 0.912 | 1.18 | 0.893 | 1.01 | 1.1 | 0.925
1 µM, treatment time 24 h | 0.894 | 0.91 | 1.15 | 1.04 | 1.04 | 1.42 | 1.07
1 µM, treatment time 48 h | 0.996 | 0.931 | 1.07 | 1.16 | 1.07 | 1.3 | 1.18
5 µM, treatment time 12 h | 1.07 | 0.987 | 1.32 | 1.06 | 0.921 | 1.41 | 0.982
5 µM, treatment time 24 h | 1.04 | 1.01 | 1.42 | 1.06 | 1.07 | 2.27 | 1.08
5 µM, treatment time 48 h | 0.942 | 1.07 | 1.28 | 1.15 | 1.1 | 2.75 | 1.14
10 µM, treatment time 12 h | 1.11 | 0.916 | 1.31 | 1.02 | 0.924 | 1.33 | 0.914
10 µM, treatment time 24 h | 1.2 | 1.21 | 1.57 | 1.18 | 1.14 | 2.4 | 1.08
10 µM, treatment time 48 h | 1.12 | 1.32 | 1.52 | 1.3 | 1.15 | 3.6 | 1.45
